Test results from patent publication US20110173718A1, “HERBICIDE TOLERANT PLANTS” (SYNGENTA CROP PROTECTION, INC., priority 2008, published 2011).
Where “and” joins values, the source holds several entries; their conditions need not be identical. Equal values may be shown once.

Columns and labels:
Assay type in all cases: in vivo
[1] = test system: Chlamydomonas HST T0 tobacco lines; assay: Glasshouse spray test, Chlamydomonas HST transgenic tobacco; parameters: herbicidal damage score: scale not given here; details: Chlamydomonas HST T0 tobacco events (one value per event), 15 g/ha of mesotrione, 21 DAT
Text: In just the same way the Chlamydomonas HST gene sequence (AM285678) is codon-optimised for tobacco and cloned behind the double Cauliflower mosaic virus 35S promoter and Tobacco mosaic virus enhancer sequences and in front of a nos gene terminator, cloned into a binary vector and transformed into tobacco to produce a population of T0 plants.

[2] = test system: Tobacco (var Samsun) plantlets in agar; assay: HST + HPPD herbicide effects on tobacco seedlings in agar; details: mesotrione 0.004 ppm, 0.75% v/v DMSO, no haloxydine, agar, 7 DAT
Protocol: Tobacco (var Samsun) plantlets germinated aseptically in agar made up in 1/3 strength Murashige and Skoog salts medium along with various doses of herbicide. Bleaching damage to emerging plantlets is assessed 7 DAT. The plantlets are kept covered under clear perspex and grown at 18° C. (night) and 24° C. (day) under a 16 h day (˜500-900 umol/m^2), 8 h darkness regime. Herbicide affected plantlets are bleached white and grow less. Synergistic/antagonistic responses are calculated using the Colby formula (Colby, S. R. (Calculating synergistic and antagonistic responses of herbicide Combinations”, Weeds, 15, p. 20-22, 1967).

weeds = assay: Glasshouse weed control by HST/HPPD (mesotrione) mixtures, pre-emergence; details: 1 g/ha, N = 3
Protocol: Weed seeds are planted out in trays containing suitable soil (for example 50% peat, 50% John Innes soil no 3) and grown in the glass house conditions under 24-27° C. day; 18-21° C. night and approximately a 14 h (or longer in UK summer) photoperiod. Humidity is ˜65% and light levels up to 2000 μmol/m^2 at bench level. Trays are sprayed with test chemicals dissolved in water with 0.2-0.25% X-77 surfactant and sprayed from a boom on a suitable track sprayer moving at about 2 mph in a suitable track sprayer (for example a DeVries spray chamber with the nozzle about 2 inches from the plant tops). Spray volume is suitably 500-1000 l/ha. Sprays are carried out both pre-emergence and over small plants at about 7-12 d post-emergence
Plants are assessed 14 DAT and herbicidal damage is scored on a scale from 0 to 100%. The HST inhibitor compound 2.30 (designated compound A in table 16 and 17), haloxydine (compound 1.1) and compound 2.13 (designated compound AE in tables 16 and 17) are sprayed at rates between 0 and 500 g/ha.

CS(=O)(=O)c1ccc(C(=O)C2C(=O)CCCC2=O)c([N+](=O)[O-])c1 [Mesotrione, mesotrione, reference compound]
herbicidal damage score [1]: 70 and 55 and 85 and 65 and 80 and 75 and 60 and 100
% Injury (bleaching), mesotrione by itself [2]: 35%
% Damage at 14 DAA, mesotrione alone (weeds; ALOMY): 0%
% Damage at 14 DAA, mesotrione alone (weeds; AMARE): 2%
% Damage at 14 DAA, mesotrione alone (weeds; ECHCG): 0%
% Damage at 14 DAA, mesotrione alone (weeds; IPOHE): 0%
% Damage at 14 DAA, mesotrione alone (weeds; SETFA): 0%
% Damage at 14 DAA, mesotrione alone (weeds; SOLNI): 17%
